We go through 29 molecules from US9856216B2, “Compounds as TNIK, IKKε and TBK1 inhibitors and pharmaceutical composition comprising same” (GREEN CROSS CORPORATION, priority 2015, dated 2018).

Structures are written as SMILES. Counter-ions that a name gives are not always drawn.

Assay type in all cases: biochemical
In assay [1] the target is T1, IKKε (Homo sapiens, UniProt Q14164).
T1 construct: purchased Invitrogen PR8031B
T1 sequence (Q14164 1-716): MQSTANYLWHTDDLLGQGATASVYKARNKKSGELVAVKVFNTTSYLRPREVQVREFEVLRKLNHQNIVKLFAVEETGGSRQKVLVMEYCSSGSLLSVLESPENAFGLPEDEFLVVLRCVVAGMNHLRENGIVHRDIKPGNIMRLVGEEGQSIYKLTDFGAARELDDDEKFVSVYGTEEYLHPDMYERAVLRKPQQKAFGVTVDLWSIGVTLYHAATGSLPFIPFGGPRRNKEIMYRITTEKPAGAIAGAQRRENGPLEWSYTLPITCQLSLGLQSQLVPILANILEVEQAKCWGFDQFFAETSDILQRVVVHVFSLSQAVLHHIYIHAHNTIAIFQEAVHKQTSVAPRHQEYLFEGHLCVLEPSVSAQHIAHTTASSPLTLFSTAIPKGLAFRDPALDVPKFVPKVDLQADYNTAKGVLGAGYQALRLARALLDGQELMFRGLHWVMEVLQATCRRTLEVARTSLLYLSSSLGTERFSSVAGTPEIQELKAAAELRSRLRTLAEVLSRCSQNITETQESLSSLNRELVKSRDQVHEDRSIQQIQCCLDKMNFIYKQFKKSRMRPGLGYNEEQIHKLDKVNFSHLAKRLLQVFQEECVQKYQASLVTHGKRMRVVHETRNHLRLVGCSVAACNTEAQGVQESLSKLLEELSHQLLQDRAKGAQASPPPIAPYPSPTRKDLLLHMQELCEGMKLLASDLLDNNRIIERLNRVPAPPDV
Description: ADP-Glo Kinase Assay, inhibition activity on IKKε. Here is the method:
(§1) The inhibition activities on TNIK, IKKε and TBK1 were measured by a luminometer, TNIK/IKKε/TBK1 Kinase Enzyme System (Promega, Ca# V4158; Invitrogen, PR8031B, Promega, Ca# V3991) and ADP-Glo Kinase Assay using ADP-Glo™ Kinase Analysis Kit (Promega, Ca# V9101) and a kinase reaction buffer [40 mM Tris(pH 7.5), 20 mM MgCl2, 0.1 mg/mL BSA] in accordance with the manufacturer's protocol.

Assay [2] concerns the target T2, TBK1 (Homo sapiens, UniProt Q9UHD2).
T2 construct: purchased Promega V3991
T2 sequence (Q9UHD2 1-729): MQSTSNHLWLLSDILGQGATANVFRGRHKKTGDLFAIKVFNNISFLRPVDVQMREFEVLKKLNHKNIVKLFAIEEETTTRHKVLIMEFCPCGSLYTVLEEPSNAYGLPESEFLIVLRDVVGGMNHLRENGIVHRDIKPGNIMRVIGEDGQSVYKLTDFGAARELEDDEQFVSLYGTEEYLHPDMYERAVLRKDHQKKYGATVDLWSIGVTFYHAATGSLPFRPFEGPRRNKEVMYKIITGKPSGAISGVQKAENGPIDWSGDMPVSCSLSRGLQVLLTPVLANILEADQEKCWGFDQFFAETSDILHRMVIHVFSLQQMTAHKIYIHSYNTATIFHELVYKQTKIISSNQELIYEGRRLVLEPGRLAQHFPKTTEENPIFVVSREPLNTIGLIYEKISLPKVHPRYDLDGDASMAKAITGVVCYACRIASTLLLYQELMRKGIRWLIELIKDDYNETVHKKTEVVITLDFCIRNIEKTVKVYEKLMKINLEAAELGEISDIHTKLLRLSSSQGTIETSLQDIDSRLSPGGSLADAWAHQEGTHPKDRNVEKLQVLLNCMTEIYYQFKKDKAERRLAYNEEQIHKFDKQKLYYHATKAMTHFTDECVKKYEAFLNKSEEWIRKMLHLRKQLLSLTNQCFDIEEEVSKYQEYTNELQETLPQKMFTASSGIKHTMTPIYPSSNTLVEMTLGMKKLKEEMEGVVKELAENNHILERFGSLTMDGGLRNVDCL
Description: ADP-Glo Kinase Assay, inhibition activity on TBK1. On the procedure: as §1
On the technique in general: ADP-Glo first removes unused ATP, then detects ADP through luciferase.

In assay [3] the target is T3, TNIK (Homo sapiens, UniProt Q9UKE5).
T3 construct: purchased Promega V4158
Description: ADP-Glo Kinase Assay, inhibition activity on TNIK. Particulars: read-out: TNIK. Here is the method:
as §1

T3 sequence (Q9UKE5 1-367 limits assumed): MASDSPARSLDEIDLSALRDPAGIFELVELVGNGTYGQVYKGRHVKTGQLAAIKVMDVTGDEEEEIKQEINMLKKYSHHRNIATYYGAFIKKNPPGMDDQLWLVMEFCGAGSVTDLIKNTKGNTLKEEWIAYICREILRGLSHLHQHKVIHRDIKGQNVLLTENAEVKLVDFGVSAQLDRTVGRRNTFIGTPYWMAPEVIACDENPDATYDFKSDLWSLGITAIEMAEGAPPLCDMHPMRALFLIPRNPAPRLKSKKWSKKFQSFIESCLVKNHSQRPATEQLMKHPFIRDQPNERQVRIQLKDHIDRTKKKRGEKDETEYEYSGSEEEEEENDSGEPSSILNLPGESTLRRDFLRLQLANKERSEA

Regarding `COc1cccc(Nc2cc(-c3ccc(N)c4c3CNC4=O)ccn2)c1` [Example 68, 7-Amino-4-(2-((3-methoxyphenyl)amino)pyridin-4-yl) isoindolin-1-one], the IC50 in assay [1] turned out to be 2640 nM; in assay [2], 1240 nM.
Take `COc1cccc(Nc2ccnc(-c3ccc(N)c4c3CNC4=O)c2)c1` [Example 69, 7-Amino-4-(4-((3-methoxyphenyl)amino)pyridin-2-yl) isoindolin-1-one]: in assay [2], the IC50 was above 10000 nM.
As to `COc1cccc(Nc2nccc(-c3ccc(N)c4c3CNC4=O)n2)c1` [Example 70, 7-Amino-4-(2-((3-methoxyphenyl)amino)pyrimidin-4-yl) isoindolin-1-one], the IC50 in assay [1] and in assay [2] was 51 nM in each case.
As to `Cn1cc(Nc2nccc(-c3ccc(N)c4c3CNC4=O)n2)cn1` [Example 71], the results for the IC50 in assay [1] and in assay [2] were 160 nM and 150 nM, respectively.
The like results for `Nc1ccc(-c2ccnc(Nc3ccccc3)n2)c2c1C(=O)NC2` [Example 72, 7-Amino-4-(2-(phenylamino)pyrimidin-4-yl)isoindolin-1-one] were, in that order, 280 nM and 90 nM.
For the molecule `Nc1ccc(-c2ccnc(Nc3cccc(F)c3)n2)c2c1C(=O)NC2` [Example 73, 7-Amino-4-(2-((3-fluorophenyl)amino)pyrimidin-4-yl) isoindolin-1-one], the IC50 in assay [1] came out at 350 nM; in assay [2], 35 nM.
The like results for `Nc1ccc(-c2ccnc(Nc3ccc(F)cc3)n2)c2c1C(=O)NC2` [Example 74, 7-Amino-4-(2-((4-fluorophenyl)amino)pyrimidin-4-yl) isoindolin-1-one] were, in that order, 560 nM and 43 nM.
The like results for `COc1ccc(Nc2nccc(-c3ccc(N)c4c3CNC4=O)n2)cc1` [Example 75, 7-Amino-4-(2-((4-methoxyphenyl)amino)pyrimidin-4-yl) isoindolin-1-one] were, in that order, 360 nM and 110 nM.
The like results for `CC(=O)Nc1ccc(Nc2nccc(-c3ccc(N)c4c3CNC4=O)n2)cc1` [Example 76, N-(4-((4-(7-amino-1-oxoisoindolin-4-yl)pyrimidin-2-yl)amino)phenyl)acetamide] were, in that order, 350 nM and 100 nM.
On to `CC(=O)Nc1cccc(Nc2nccc(-c3ccc(N)c4c3CNC4=O)n2)c1` [Example 77, N-(3-((4-(7-amino-1-oxoisoindolin-4-yl)pyrimidin-2-yl)amino)phenyl)acetamide], for which the IC50 in assay [1] came to 200 nM; in assay [2], 27 nM.
The like results for `COc1cccc(Nc2cc(-c3ccc(N)c4c3CNC4=O)ncn2)c1` [Example 78, 7-Amino-4-(6-((3-methoxyphenyl)amino)pyrimidin-4-yl) isoindolin-1-one] were, in that order, 1390 nM and 190 nM.
Consider `Nc1ccc(-c2c[nH]c3ncc(-c4ccccc4)cc23)c2c1C(=O)NC2` [Example 79, 7-Amino-4-(5-phenyl-1H-pyrrolo[2,3-b]pyridin-3-yl) isoindolin-1-one], for which the IC50 in assay [2] is 640 nM.
Regarding `Nc1ccc(-c2ccnc3[nH]ccc23)c2c1C(=O)NC2` [Example 80, 7-Amino-4-(1H-pyrrolo[2,3-b]pyridin-4-yl)isoindolin-1-one], the IC50 in assay [1] is above 10000 nM; in assay [2], 9230 nM.
The like results for `CN1CCN(c2nccc(-c3ccc(N)c4c3CNC4=O)n2)CC1` [Example 81, 7-Amino-4-(2-(4-methylpiperazin-1-yl)pyrimidin-4-yl) isoindolin-1-one] were, in that order, above 10000 nM and above 10000 nM.
The like results for `Nc1ccc(-c2ccnc(N3CCOCC3)n2)c2c1C(=O)NC2` [Example 82, 7-Amino-4-(2-morpholinopyrimidin-4-yl)isoindolin-1-one] were, in that order, above 10000 nM and above 10000 nM.
For the molecule `Cc1ccc(Nc2nccc(-c3ccc(N)c4c3CNC4=O)n2)cc1` [Example 83, 7-Amino-4-(2-(p-tolylamino)pyrimidin-4-yl)isoindolin-1-one], the IC50 in assay [1] worked out at 870 nM; in assay [2], 380 nM.
With `O=C(Nc1ccc(Nc2ccccc2)c2c1C(=O)NC2)c1ccc(NCCCN2CCCCC2)cc1` [Example 480, N-(3-oxo-7-(phenylamino)isoindolin-4-yl)-4-((3-(piperidin-1-yl)propyl)amino)benzamide hydrochloride], the IC50 in assay [3] was found to be 220 nM.
As to `NCCNc1ccc(C(=O)Nc2ccc(Nc3ccccc3)c3c2C(=O)NC3)cc1` [Example 481, 4-((2-Aminoethyl)amino)-N-(3-oxo-7-(phenylamino)isoindolin-4-yl)benzamide], the IC50 in assay [3] is 200 nM.
On the same count and under the same terms, under `Cc1ccccc1Nc1ccc(NC(=O)c2ccc(NCCN3CCCCC3)cc2)c2c1CNC2=O` [Example 482, N-(3-oxo-7-(o-tolylamino)isoindolin-4-yl)-4-((2-(piperidin-1-yl)ethyl)amino)benzamide] stands 420 nM; under `Cc1ccccc1Nc1ccc(NC(=O)c2ccc(NCCCN3CCCCC3)cc2)c2c1CNC2=O` [Example 483, N-(3-oxo-7-(o-tolylamino)isoindolin-4-yl)-4-((3-(piperidin-1-yl)propyl)amino)benzamide], 250 nM.
Same read-out and setting: under `O=C(Nc1ccc(Nc2ccccc2)c2c1C(=O)NC2)c1ccc(NCCCCO)cc1` [Example 484, 4-((4-Hydroxybutyl)amino)-N-(3-oxo-7-(phenylamino)isoindolin-4-yl)benzamide] stands 290 nM; under `CC(=O)NCCNc1ccc(C(=O)Nc2ccc(Nc3ccccc3)c3c2C(=O)NC3)cc1` [Example 485, 4-((2-Acetamidoethyl)amino)-N-(3-oxo-7-(phenylamino)isoindolin-4-yl)benzamide], 100 nM.
On the same count and under the same terms, under `NCCCNc1ccc(C(=O)Nc2ccc(Nc3ccccc3)c3c2C(=O)NC3)cc1` [Example 486, 4-((3-Aminopropyl)amino)-N-(3-oxo-7-(phenylamino)isoindolin-4-yl)benzamide] stands 200 nM.
For the molecule `O=C(Nc1ccc(Nc2ccccc2)c2c1C(=O)NC2)c1ccc(NCCO)cc1` [Example 487, 4-((2-Hydroxyethyl)amino)-N-(3-oxo-7-(phenylamino)isoindolin-4-yl)benzamide], the IC50 in assay [3] was found to be 97 nM.
Take `O=C(Nc1ccc(Nc2ccccc2)c2c1C(=O)NC2)c1ccc(NCC(O)CN2CCCCC2)cc1` (stereo not shown) [Example 488, 4-((2-Hydroxy-3-(piperidin-1-yl)propyl)amino)-N-(3-oxo-7-(phenylamino)isoindolin-4-yl)benzamide]: the IC50 in assay [3] is 93 nM.
`O=C(Nc1ccc(Nc2ccccc2)c2c1C(=O)NC2)c1ccc(NC[C@H](O)CN2CCCCC2)cc1` [Example 489, (S)-4-((2-hydroxy-3-(piperidin-1-yl)propyl)amino)-N-(3-oxo-7-(phenylamino)isoindolin-4-yl)benzamide]: the IC50 in assay [3] came to 87 nM.
On to `O=C(Nc1ccc(Nc2ccccc2)c2c1C(=O)NC2)c1ccc(NC[C@@H](O)CN2CCCCC2)cc1` [Example 490, (R)-4-((2-hydroxy-3-(piperidin-1-yl)propyl)amino)-N-(3-oxo-7-(phenylamino)isoindolin-4-yl)benzamide], for which, in assay [3], the IC50 worked out at 140 nM.
As for `NC1CCN(c2ccc(C(=O)Nc3ccc(Nc4ccccc4)c4c3C(=O)NC4)cc2)CC1` [Example 491, 4-(4-Aminopiperidin-1-yl)-N-(3-oxo-7-(phenylamino)isoindolin-4-yl)benzamide], the IC50 in assay [3] stood at 110 nM.
Same read-out and setting: to `O=C(Nc1ccc(Nc2ccccc2)c2c1C(=O)NC2)c1ccc(NCCN2CCCCCC2)cc1` [Example 492, 4-((2-(Azepan-1-yl)ethyl)amino)-N-(3-oxo-7-(phenylamino)isoindolin-4-yl)benzamide] belongs 180 nM.
